According to ChEMBL document CHEMBL6103538, “Carbonic anhydrases: Moiety appended derivatives, medicinal and pharmacological implications” (Bioorg Med Chem, 2024):
Blank lines part the entries; values can stand above or below the molecule they belong to.

Tests used:
Carbonic anhydrase 9 [1] = target: T1, Carbonic anhydrase 9 (Homo sapiens, UniProt Q16790); test: Binding affinity human CA IX assessed as inhibition constant
Carbonic anhydrase 12 [2] = target: T2, Carbonic anhydrase 12 (Homo sapiens, UniProt O43570); test: Binding affinity to human CA XII assessed as inhibition constant
MDA-MB-231 [3] = test: Anticancer activity against human MDA-MB-231 cells assessed as reduction in cell viability under normoxia condition; type: functional, cell-based
MDA-MB-231 [4] = test: Anticancer activity against human MDA-MB-231 cells assessed as reduction in cell viability under hypoxia condition; type: functional, cell-based
MCF7 [5] = test: Anticancer activity against human MCF7 cells assessed as reduction in cell viability under normoxia condition; type: functional, cell-based
MCF7 [6] = test: Anticancer activity against human MCF7 cells assessed as reduction in cell viability under hypoxia condition; type: functional, cell-based
[7] = Inhibition of Hsp70 (unknown origin); set-up: species or system Homo sapiens
Carbonic anhydrase 1 [8] = target: T3, Carbonic anhydrase 1 (Homo sapiens, UniProt P00915); test: Binding affinity to human CA I assessed as inhibition constant
Carbonic anhydrase 2 [9] = target: T4, Carbonic anhydrase 2 (Homo sapiens, UniProt P00918); test: Binding affinity to human CA II assessed as inhibition constant
Homo sapiens [10] = species: Homo sapiens; test: Selectivity ratio of IC50 for human CA I to IC50 for human CA II
Carbonic anhydrase 2 [11] = target: T4, Carbonic anhydrase 2; test: Binding affinity to human CA II assessed as inhibition constant by spectrophotometric analysis
Homo sapiens [12] = species: Homo sapiens; test: Selectivity ratio of IC50 for human CA IX to IC50 for human CA II
Carbonic anhydrase 1 [13] = target: T3, Carbonic anhydrase 1; test: Binding affinity to human Carbonic anhyrase 1 assessed as inhibition constant pre-incubated for 10 mins by stopped-flow instrument based assay
Carbonic anhydrase 2 [14] = target: T4, Carbonic anhydrase 2; test: Binding affinity to human Carbonic anhyrase 2 assessed as inhibition constant pre-incubated for 10 mins by stopped-flow instrument based assay
HT-29 = test: Cytotoxicity against human HT-29 cells assessed as reduction in cell viability incubated for 24 hrs by MTT assay; type: functional, cell-based; details: HT-29, 24 h
PC-3 = test: Cytotoxicity against human PC-3 cells assessed as reduction in cell viability incubated for 24 hrs by MTT assay; type: functional, cell-based; details: PC-3, 24 h
[15] = target: Carbonic anhydrase 5B, mitochondrial (Homo sapiens, UniProt Q9Y2D0); test: Binding affinity to human CA VB-catalysed CO2 hydration activity assessed as inhibition constant pre-incubated for 15 mins by stopped-flow instrument method
Carbonic anhydrase 2 [16] = target: T4, Carbonic anhydrase 2; test: Inhibition of human Carbonic anhydrase 2
Carbonic anhydrase 9 [17] = target: T1, Carbonic anhydrase 9; test: Inhibition of human Carbonic anhydrase IX
MCF7 [18] = test: Antiproliferative activity against human MCF7 cells assessed as reduction in cell viability by SRB assay; type: functional, cell-based
HepG2 [19] = test: Antiproliferative activity against human HepG2 cells assessed as reduction in cell viability by SRB assay; type: functional, cell-based
Carbonic anhydrase 9 [20] = target: T1, Carbonic anhydrase 9; test: Binding affinity to human recombinant CA IX assessed as inhibition constant
Carbonic anhydrase 12 [21] = target: T2, Carbonic anhydrase 12; test: Binding affinity to human recombinant CA XII assessed as inhibition constant
Carbonic anhydrase 1 [22] = target: T3, Carbonic anhydrase 1; test: Binding affinity to human CA I assessed as inhibition constant by spectrophotometric analysis
MCF7 [23] = test: Cytotoxicity against human MCF7 cells assessed as reduction in cell viability incubated for 24 hrs by MTT assay; type: functional, cell-based; details: MCF7, 24 h
A549 = test: Antiproliferative activity against human A549 cells assessed as reduction in cell viability by SRB assay; type: functional, cell-based
MCF7 [24] = test: cells; type: functional, cell-based; details: Homo sapiens
HCT-116 = test: cells; type: functional, cell-based; details: Homo sapiens
Description: Cytotoxicity against human HCT-116 cells

Carbonic anhydrase 4 = Carbonic anhydrase 4 (Homo sapiens, UniProt P22748); test: Binding affinity to human CA4 assessed as inhibition constant
Carbonic anhydrase 2 [25] = target: T4, Carbonic anhydrase 2; test: Binding affinity to human CA II assessed as inhibition constant pre-incubated for 15 mins by stopped-flow CO2-hydrase assay method
MDA-MB-231 [26] = test: Anticancer activity against human MDA-MB-231 cells assessed as reduction in cell viability measured after 72 hrs by MTT assay; type: functional, cell-based; details: MDA-MB-231, 72 h
HepG2 [27] = test: Anticancer activity against human HepG2 cells assessed as reduction in cell viability measured after 72 hrs by MTT assay; type: functional, cell-based; details: HepG2, 72 h
MCF7 [28] = test: Anticancer activity against human MCF7 cells assessed as reduction in cell viability measured after 72 hrs by MTT assay; type: functional, cell-based; details: MCF7, 72 h
Carbonic anhydrase 1 [29] = target: T3, Carbonic anhydrase 1; test: Inhibition of human Carbonic anhydrase 1

T2 sequence (O43570 whole entry): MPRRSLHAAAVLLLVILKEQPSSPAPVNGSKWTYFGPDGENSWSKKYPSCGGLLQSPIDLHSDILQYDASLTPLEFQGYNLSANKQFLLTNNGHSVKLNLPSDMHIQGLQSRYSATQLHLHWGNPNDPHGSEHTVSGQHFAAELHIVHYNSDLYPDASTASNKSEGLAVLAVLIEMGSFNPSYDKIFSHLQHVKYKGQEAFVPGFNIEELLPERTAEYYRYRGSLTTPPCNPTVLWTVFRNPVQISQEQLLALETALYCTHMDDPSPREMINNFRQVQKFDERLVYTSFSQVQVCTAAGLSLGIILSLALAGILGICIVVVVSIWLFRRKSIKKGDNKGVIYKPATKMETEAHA
Sequence of Carbonic anhydrase 5B, mitochondrial (Q9Y2D0 whole entry): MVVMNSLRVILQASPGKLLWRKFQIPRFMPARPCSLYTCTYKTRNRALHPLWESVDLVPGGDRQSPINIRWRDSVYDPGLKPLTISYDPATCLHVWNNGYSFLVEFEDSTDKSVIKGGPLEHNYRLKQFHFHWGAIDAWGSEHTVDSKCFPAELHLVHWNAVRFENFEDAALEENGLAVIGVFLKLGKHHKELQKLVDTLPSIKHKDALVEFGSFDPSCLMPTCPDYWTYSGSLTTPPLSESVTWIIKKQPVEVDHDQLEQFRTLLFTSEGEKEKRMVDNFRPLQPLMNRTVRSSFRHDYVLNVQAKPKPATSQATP
T3 sequence (P00915 whole entry): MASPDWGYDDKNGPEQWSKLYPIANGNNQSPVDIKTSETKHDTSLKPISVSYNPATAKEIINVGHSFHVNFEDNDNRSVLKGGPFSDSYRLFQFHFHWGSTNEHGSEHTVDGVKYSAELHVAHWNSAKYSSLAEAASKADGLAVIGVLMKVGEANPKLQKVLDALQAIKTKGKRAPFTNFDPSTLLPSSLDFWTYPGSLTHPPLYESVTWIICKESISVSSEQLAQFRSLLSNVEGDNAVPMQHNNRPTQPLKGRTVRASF
Sequence of Carbonic anhydrase 4 (P22748 whole entry): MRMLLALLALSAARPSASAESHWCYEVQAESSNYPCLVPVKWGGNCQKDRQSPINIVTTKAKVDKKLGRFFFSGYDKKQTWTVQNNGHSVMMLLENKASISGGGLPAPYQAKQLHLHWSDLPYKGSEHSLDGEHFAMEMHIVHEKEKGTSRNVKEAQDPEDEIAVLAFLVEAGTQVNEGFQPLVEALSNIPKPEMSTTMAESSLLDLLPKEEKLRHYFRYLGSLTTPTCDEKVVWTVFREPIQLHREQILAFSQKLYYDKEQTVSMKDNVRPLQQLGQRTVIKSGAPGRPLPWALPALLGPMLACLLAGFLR

Structure (SMILES): NS(=O)(=O)c1ccc(C(=O)Nc2nc(C(=O)OCCN3CCOCC3)cs2)cc1
Ki (Carbonic anhydrase 1 [8]): 49.8 nM | Ki (Carbonic anhydrase 2 [9]): 5.97 nM

Structure (SMILES): Cc1ccnc(NS(=O)(=O)c2ccc(NC(=S)NC(=O)c3ccc(F)cc3)cc2)n1
Ki (Carbonic anhydrase 2 [11]): 8.15 nM

Structure (SMILES): Cc1nn(-c2ccc(S(N)(=O)=O)cc2)c2c1C(c1c(F)cccc1F)C(C#N)=C(N)O2 (stereo unspecified)
Ratio IC50 (Homo sapiens [10]): 14.3 | Ratio IC50 (Homo sapiens [12]): 7.42 | Ki (Carbonic anhydrase 9 [1]): 19 nM

Structure (SMILES): Cc1ccc(C(C)C)c(OCc2cn(CCCCOc3ccc4ccc(=O)oc4c3)nn2)c1
IC50 (HT-29): 12100 nM | IC50 (PC-3): 9400 nM

Structure (SMILES): Cc1ccc(C)c(NC(=O)SOS(N)(=O)=O)c1
Ki [15]: 516 nM

Structure (SMILES): O=C(NC(=S)Nc1ccc(S(=O)(=O)Nc2nccs2)cc1)c1ccc(F)cc1
Ki (Carbonic anhydrase 1 [22]): 14 nM

Structure (SMILES): Cc1ccc(C(C)C)cc1OCc1cn(CCCCCCOc2ccc3ccc(=O)oc3c2)nn1
IC50 (MCF7 [23]): 2480 nM

Structure (SMILES): CC(=O)C(C)/C(C)=N/NC(=O)C12CC3CC(CC(C3)C1)C2 (stereo unspecified)
IC50 (MCF7 [18]): < 5000 nM | IC50 (A549): < 5000 nM | IC50 (HepG2 [19]): < 5000 nM

Structure (SMILES): N=C(N)NS(=O)(=O)c1ccc(/N=N/Nc2c(F)c(F)c(F)c(F)c2F)cc1
Ki (Carbonic anhydrase 2 [9]): 8.16 nM

Structure (SMILES): NS(=O)(=O)c1ccc(C(=O)Nc2ncc(C(=O)NCCN3CCOCC3)s2)cc1
Ki (Carbonic anhydrase 1 [8]): 45.9 nM | Ki (Carbonic anhydrase 2 [9]): 6.51 nM

Structure (SMILES): COc1ccc(-c2cs/c(=N\C(=O)c3c(F)cccc3F)n2C2=C(N)C(=O)c3ccccc3C2=O)cc1
Ki (Carbonic anhydrase 2 [9]): 55.3 nM

Structure (SMILES): CCOC(=O)c1sc(NC(=O)c2ccc(S(N)(=O)=O)cc2)nc1C(F)(F)F
Ki (Carbonic anhydrase 1 [8]): 38.5 nM | Ki (Carbonic anhydrase 2 [9]): 7.36 nM

Structure (SMILES): COc1cccc(NC(=O)Nc2cccc(OC)c2)c1
IC50 (MDA-MB-231 [3]): 6300 nM | IC50 (MDA-MB-231 [4]): 12400 nM | IC50 (MCF7 [5]): 3700 nM | IC50 (MCF7 [6]): 1100 nM | IC50 [7]: 15300 nM

Structure (SMILES): CCOC(=O)c1sc2ncnc(Nc3ccc(S(N)(=O)=O)cc3)c2c1C
Ki (Carbonic anhydrase 2 [9]): 8.6 nM | Ki (Carbonic anhydrase 9 [1]): 13.8 nM | Ki (Carbonic anhydrase 12 [2]): 19 nM

Structure (SMILES): CC(=O)c1ccc(N/N=N/c2ccc(S(=O)(=O)NC(=N)N)cc2)cc1
Ki (Carbonic anhydrase 1 [8]): 6.44 nM

Structure (SMILES): NC1=C(n2c(-c3ccc(Cl)cc3)cs/c2=N\C(=O)c2c(F)cccc2F)C(=O)c2ccccc2C1=O
Ki (Carbonic anhydrase 1 [8]): 67.9 nM

Structure (SMILES): Cc1ccc(NC(=O)SOS(N)(=O)=O)cc1
Ki [15]: 462 nM

Structure (SMILES): CCCCCCCCn1c2ccccc2c2cc(/N=C/c3cccc(O)c3O)ccc21
IC50 (Carbonic anhydrase 2 [16]): 21800 nM

Structure (SMILES): Cc1ccc(-c2c(/C=N/NC(=O)C34CC5CC(CC(C5)C3)C4)n[nH]c2-c2ccccc2)cc1
IC50 (MCF7 [18]): < 5000 nM | IC50 (A549): < 5000 nM | IC50 (HepG2 [19]): < 5000 nM

Continued, values first:

Ki (Carbonic anhydrase 9 [1]): 4.1 nM | Ki (Carbonic anhydrase 12 [2]): 9.1 nM | IC50 (MDA-MB-231 [3]): 6300 nM | IC50 (MDA-MB-231 [4]): 12500 nM | IC50 (MCF7 [5]): 4600 nM | IC50 (MCF7 [6]): 14400 nM | IC50 [7]: 19400 nM
Structure (SMILES): COc1cccc(NC(=O)Nc2ccc(S(N)(=O)=O)cc2)c1

Ratio IC50 (Homo sapiens [10]): 44.4
Structure (SMILES): COC(=O)[C@H]1O[C@@H](NC(=O)c2ccc(S(N)(=O)=O)cc2)[C@H](O)[C@@H](O)[C@@H]1O

Ki (Carbonic anhydrase 1 [13]): 50.4 nM | Ki (Carbonic anhydrase 2 [14]): 36.2 nM
Structure (SMILES): Cc1ccc(C(=O)/C=C/c2cn(Cc3cn(-c4ccc(S(N)(=O)=O)cc4)nn3)c3ccccc23)cc1

IC50 (Carbonic anhydrase 2 [16]): 21.2 nM
Structure (SMILES): NS(=O)(=O)c1ccc(CCNC(=O)c2ccc3c(c2)C(=O)c2ccccc2C3=O)cc1

IC50 (Carbonic anhydrase 9 [17]): 5230 nM
Structure (SMILES): Clc1ccccc1-c1nc2cc(-c3ccc4[nH]c(-c5ccccc5Cl)nc4c3)ccc2[nH]1

IC50 (MCF7 [18]): < 5000 nM | IC50 (HepG2 [19]): < 5000 nM | Ki (Carbonic anhydrase 9 [20]): 85 nM | Ki (Carbonic anhydrase 12 [21]): 140 nM
Structure (SMILES): Nc1nn(C(=O)C23CC4CC(CC(C4)C2)C3)c(N)c1/N=N/c1ccccc1

Ki (Carbonic anhydrase 1 [8]): 36.1 nM
Structure (SMILES): Cn1c(N)c(NCc2ccc(Br)cc2O)c(=O)n(C)c1=O

Ki (Carbonic anhydrase 1 [13]): 18.8 nM | Ki (Carbonic anhydrase 2 [14]): 468 nM
Structure (SMILES): NS(=O)(=O)c1ccc(-n2cc(Cn3cc(/C=C/C(=O)c4ccc(Br)cc4)c4ccccc43)nn2)cc1

Ki (Carbonic anhydrase 1 [8]): 40.6 nM
Structure (SMILES): C/C(=N\Nc1nc(-c2ccc(C)cc2)cs1)c1nnn(-c2ccc(S(N)(=O)=O)cc2)c1C

Ki (Carbonic anhydrase 9 [1]): 12 nM | IC50 (MCF7 [24]): 1880 nM | IC50 (HCT-116): 4620 nM
Structure (SMILES): COc1ccc(C2C(C#N)=C(N)Oc3c2c(C)nn3-c2ccc(S(N)(=O)=O)cc2)cc1O (stereo unspecified)

Ki (Carbonic anhydrase 2 [9]): 16.3 nM
Structure (SMILES): Cn1c(N)c(NCc2cc(I)ccc2O)c(=O)n(C)c1=O

Ki (Carbonic anhydrase 1 [13]): 38.3 nM | Ki (Carbonic anhydrase 2 [14]): 716 nM
Structure (SMILES): COc1cccc(C(=O)/C=C/c2cn(Cc3cn(-c4ccc(S(N)(=O)=O)cc4)nn3)c3ccccc23)c1

Ki [15]: 271 nM
Structure (SMILES): CCOc1ccccc1NC(=O)SOS(N)(=O)=O

Ki (Carbonic anhydrase 4): 88 nM
Structure (SMILES): Cc1c(/C=N/Nc2nc(-c3ccc(F)cc3)cs2)nnn1-c1cccc(S(N)(=O)=O)c1

Ki (Carbonic anhydrase 2 [25]): 4 nM
Structure (SMILES): NS(=O)(=O)c1ccc(-c2ccc(-c3cnc(C(=O)N4CCNCC4)o3)s2)cc1

Ki [15]: 345 nM
Structure (SMILES): COc1ccccc1NC(=O)SOS(N)(=O)=O

IC50 (MDA-MB-231 [26]): 46200 nM | IC50 (HepG2 [27]): 28100 nM | IC50 (MCF7 [28]): 69400 nM
Structure (SMILES): NS(=O)(=O)c1ccc(NC(=S)NC(=O)c2ccc3c(c2)C(=O)c2ccccc2C3=O)cc1

Ki (Carbonic anhydrase 1 [8]): 27.3 nM | Ki (Carbonic anhydrase 2 [9]): 6.92 nM
Structure (SMILES): NS(=O)(=O)c1ccc(C(=O)Nc2nc(C(=O)OCCCN3CCOCC3)cs2)cc1

Ki (Carbonic anhydrase 9 [1]): 19 nM | IC50 (MCF7 [24]): 1690 nM | IC50 (HCT-116): 1300 nM
Structure (SMILES): Cc1nn(-c2ccc(S(N)(=O)=O)cc2)c2c1C(c1ccc(F)cc1F)C(C#N)=C(N)O2 (stereo unspecified)

Ki (Carbonic anhydrase 1 [22]): 20.7 nM
Structure (SMILES): O=C(NC(=S)Nc1ccc(S(=O)(=O)Nc2nccs2)cc1)c1ccccc1

IC50 (Carbonic anhydrase 1 [29]): 32100 nM
Structure (SMILES): CCCCCCCCn1c2ccccc2c2cc(/N=C/c3ccc(O)c(O)c3)ccc21

Ki (Carbonic anhydrase 9 [1]): 16.1 nM
Structure (SMILES): Cc1sc2ncnc(Nc3ccc(S(N)(=O)=O)cc3)c2c1C
